Measurements: patent US10934298B2, “Substituted pyrazolo[1,5-a]pyrimidines for the treatment of medical disorders” (BIAL—BioTech Investments, Inc., priority 2016, dated 2021)

Biological target: T1, glucocerebrosidase (Gcase) (Homo sapiens, UniProt P04062)
T1 construct: micellar solution containing 10 nM GCase and 100 nM saposin C
T1 sequence (P04062 40-536): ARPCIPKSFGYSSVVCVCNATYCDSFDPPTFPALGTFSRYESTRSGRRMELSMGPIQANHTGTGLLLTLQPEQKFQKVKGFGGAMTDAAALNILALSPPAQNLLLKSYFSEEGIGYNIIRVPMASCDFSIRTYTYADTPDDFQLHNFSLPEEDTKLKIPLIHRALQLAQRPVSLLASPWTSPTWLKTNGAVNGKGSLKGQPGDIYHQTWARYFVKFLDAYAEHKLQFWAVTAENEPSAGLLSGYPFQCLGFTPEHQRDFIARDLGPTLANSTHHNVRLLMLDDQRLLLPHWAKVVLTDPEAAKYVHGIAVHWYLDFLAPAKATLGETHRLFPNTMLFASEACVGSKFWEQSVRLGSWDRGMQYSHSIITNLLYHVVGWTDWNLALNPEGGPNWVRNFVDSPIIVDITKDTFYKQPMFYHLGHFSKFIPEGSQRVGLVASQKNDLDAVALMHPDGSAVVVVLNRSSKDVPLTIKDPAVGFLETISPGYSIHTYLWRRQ
Assay: Glucocerebrosidase (Gcase) activation assay with 4-methylumbelliferyl-beta-D-glucopyranoside substrate, saposin C and phosphatidylserine/triton micelles, fluorescence readout
Format: biochemical
Protocol: The ability of exemplary compounds to activate glucocerebrosidase (Gcase) was measured.
A 484 μL aliquot of a 1.0 mg/mL solution of phosphatidylserine (PS) (Sigma P7769) in chloroform was evaporated under a stream of nitrogen for 1 hour. The lipid film was dissolved over 4 minutes of vigorous vortexing in 40 mL of 176 mM K2HPO4/50 mM citric acid (pH 4.7) containing 7.5 μL of triton X-100, resulting in a mixed micellar preparation with a composition of 0.32 mM triton and 0.37 mol % PS. 4-Methylumbelliferyl-beta-D-glucopyranoside (ACROS-337025000) was dissolved in the micellar solution to a final concentration of 2 mM for use as the reaction substrate.
Test compounds were diluted to the desired concentrations with dimethylsulfoxide (DMSO) from 10 mM stocks, and 0.41 μL of the DMSO compound mixture was added to 100 μL of micellar solution containing 10 nM GCase and 100 nM saposin C (Enzo ALX-201-262-C050). Pre-incubation was allowed to occur for 30 minutes at room temperature, after which the reaction was initiated by combining 25 μL of substrate solution with 25 μL of compound/GCase/saposin mixture. The reaction proceeded for 15 minutes at room temperature and was stopped by adding 150 μL of 1M glycine, pH 12.5. The endpoint of the reaction was monitored by measuring fluorescence intensity (excitation: 365 nm; emission: 440 nm) on a SpectraMax i3 instrument (Molecular Devices). Test compounds were screened at 1.0 and 0.1 μM final concentration, and subsequent 8-point dose response curves were obtained using 3-fold dilutions from a maximum final concentration of 5 μM.

Row | Percent Gcase Activation, 0.1 μM Test Compound (test compound at 0.1 μM) | Percent Gcase Activation, 1 μM Test Compound (test compound at 1.0 μM) | Percent Gcase Activation, 0.1 μM Test Compound (0.1 μM test compound) | Percent Gcase Activation, 1 μM Test Compound (1 μM test compound) | SMILES | other results
1 | *** (greater than 20% Gcase activation) | +++ (Gcase activation greater than 60%) | – | – | Cc1ncc(-c2cc(C)n3ncc(C(=O)N[C@@H](C4CC4)C(F)(F)F)c3n2)o1 [III-248] | –
2 | *** (greater than 20% Gcase activation) | +++ (Gcase activation greater than 60%) | – | – | Cc1cc(-c2cccc(-c3ncon3)c2)nc2c(C(=O)NC(C3CC3)C(F)(F)F)cnn12 (stereo not drawn) [III-176] | –
3 | *** (greater than 20% Gcase activation) | +++ (Gcase activation greater than 60%) | – | – | Cc1cc(-n2ccc(F)n2)nc2c(C(=O)NC(C3CC3)C(F)(F)F)cnn12 (stereo not drawn) [III-172] | –
4 | – | – | * (less than 10% Gcase activation) | + (less than 30% Gcase activation) | Cc1ncccc1-c1cc(C)n2ncc(C(=O)N[C@H](C3CC3)C(F)(F)F)c2n1 [III-376] | –
5 | – | – | *** (greater than 20% Gcase activation) | +++ (Gcase activation greater than 60%) | Cc1cc(-c2cncc(C#N)c2)nc2c(C(=O)N[C@H](C3CC3)C(F)(F)F)cnn12 [III-363] | –
6 | – | – | *** (greater than 20% Gcase activation) | +++ (Gcase activation greater than 60%) | Cc1cc(-c2ccc(F)o2)nc2c(C(=O)N[C@H](C)C(F)(F)F)cnn12 [III-334] | –
7 | – | – | – | – | Cc1cc(-c2ccc(F)cc2)n2nc(Cl)c(C(=O)N[C@@H](C)C3CC3)c2n1 [III-33] | Percent Gcase Activation, 0.1 μM Test Compound (0.1 μM test compound, Table 3A): * (less than 10% Gcase activation); Percent Gcase Activation, 1 μM Test Compound (1 μM test compound, Table 3A): ++ (Gcase activation in the range of 30% up to 60%)
8 | – | – | *** (greater than 20% Gcase activation) | +++ (Gcase activation greater than 60%) | Cc1cc(-c2ccc3ncn(C)c3c2)nc2c(C(=O)N[C@@H](C3CC3)C(F)(F)F)cnn12 [III-306] | –
9 | – | – | *** (greater than 20% Gcase activation) | +++ (Gcase activation greater than 60%) | Cc1cc(-c2noc(C(C)C)n2)nc2c(C(=O)N[C@H](C3CC3)C(F)(F)F)cnn12 [III-393] | –
10 | – | – | *** (greater than 20% Gcase activation) | +++ (Gcase activation greater than 60%) | Cc1sncc1-c1cc(C)n2ncc(C(=O)N[C@@H](C3CC3)C(F)(F)F)c2n1 [III-388] | –
11 | – | – | *** (greater than 20% Gcase activation) | +++ (Gcase activation greater than 60%) | Cc1cc(-c2cccnc2C(F)(F)F)nc2c(C(=O)N[C@H](C3CC3)C(F)(F)F)cnn12 [III-355] | –
12 | – | – | – | – | Cc1cc(C)n2ncc(C(=O)NC3(C4CC4)CC3)c2n1 [III-12] | Percent Gcase Activation, 0.1 μM Test Compound (0.1 μM test compound, Table 3A): * (less than 10% Gcase activation); Percent Gcase Activation, 1 μM Test Compound (1 μM test compound, Table 3A): + (less than 30% Gcase activation)
13 | – | – | – | – | Cc1cc(-c2ccccn2)n2ncc(C(=O)NC(C)(C)C3CC3)c2n1 [III-17] | Percent Gcase Activation, 0.1 μM Test Compound (0.1 μM test compound, Table 3A): * (less than 10% Gcase activation); Percent Gcase Activation, 1 μM Test Compound (1 μM test compound, Table 3A): + (less than 30% Gcase activation)
14 | *** (greater than 20% Gcase activation) | +++ (Gcase activation greater than 60%) | – | – | Cc1cc(-c2cccnc2)nc2c(C(=O)N[C@H](C3CC3)C(F)(F)F)cnn12 [III-88] | –
15 | *** (greater than 20% Gcase activation) | +++ (Gcase activation greater than 60%) | – | – | Cc1cc(-c2ccc3scnc3c2)nc2c(C(=O)N[C@@H](C)C3CC3)cnn12 [III-192] | –
16 | – | – | *** (greater than 20% Gcase activation) | +++ (Gcase activation greater than 60%) | Cc1cc(-c2cc(F)c3c(c2)OCO3)nc2c(C(=O)NC(C)C(F)(F)F)cnn12 (stereo not drawn) [III-294] | –
17 | *** (greater than 20% Gcase activation) | +++ (Gcase activation greater than 60%) | – | – | Cc1cc(-c2cnccc2Cl)nc2c(C(=O)NC(C3CC3)C(F)(F)F)cnn12 (stereo not drawn) [III-122] | –
18 | *** (greater than 20% Gcase activation) | +++ (Gcase activation greater than 60%) | – | – | Cc1ccc(-c2cc(C)n3ncc(C(=O)NC(C4CC4)C(F)(F)F)c3n2)cn1 (stereo not drawn) [III-278] | –
19 | * (less than 10% Gcase activation) | + (less than 30% Gcase activation) | – | – | Cc1cc(-c2cccnc2)nc2c(C(=O)N[C@H](C)C3CC3)cnn12 [III-87] | –
20 | *** (greater than 20% Gcase activation) | +++ (Gcase activation greater than 60%) | – | – | Cc1cc(-c2ccc(C#N)o2)nc2c(C(=O)NC(C3CC3)C(F)(F)F)cnn12 (stereo not drawn) [III-185] | –
21 | – | – | *** (greater than 20% Gcase activation) | +++ (Gcase activation greater than 60%) | Cc1ccc(-c2cc(C)n3ncc(C(=O)N[C@@H](C4CC4)C(F)(F)F)c3n2)c(F)n1 [III-373] | –
22 | – | – | *** (greater than 20% Gcase activation) | +++ (Gcase activation greater than 60%) | Cc1nc2cc(-c3cc(C)n4ncc(C(=O)N[C@@H](C)C5CC5)c4n3)ccc2o1 [III-321] | –
23 | * (less than 10% Gcase activation) | + (less than 30% Gcase activation) | – | – | Cc1ccncc1-c1cc(C)n2ncc(C(=O)NC(C)C(F)(F)F)c2n1 (stereo not drawn) [III-281] | –
24 | *** (greater than 20% Gcase activation) | +++ (Gcase activation greater than 60%) | – | – | Cc1cc(-c2occc2C#N)nc2c(C(=O)NC(C3CC3)C(F)(F)F)cnn12 (stereo not drawn) [III-250] | –
25 | – | – | – | – | Cc1cc(NC2CC2)nc2c(C(=O)NC(C3CC3)C3CC3)cnn12 [III-78] | Percent Gcase Activation, 0.1 μM Test Compound (0.1 μM test compound, Table 3A): *** (greater than 20% Gcase activation); Percent Gcase Activation, 1 μM Test Compound (1 μM test compound, Table 3A): +++ (Gcase activation greater than 60%)
26 | *** (greater than 20% Gcase activation) | +++ (Gcase activation greater than 60%) | – | – | Cc1cc(-c2cncc(Cl)c2)nc2c(C(=O)N[C@@H](C3CC3)C(F)(F)F)cnn12 [III-121] | –
27 | – | – | *** (greater than 20% Gcase activation) | +++ (Gcase activation greater than 60%) | Cc1cc(-c2ccc(F)cc2)nc2c(C(=O)N[C@@H](C)C(F)(F)F)cnn12 [III-360] | –

Row | SMILES | Percent Gcase Activation, 0.1 μM Test Compound (test compound at 0.1 μM) | Percent Gcase Activation, 1 μM Test Compound (test compound at 1.0 μM) | Percent Gcase Activation, 0.1 μM Test Compound (0.1 μM test compound) | Percent Gcase Activation, 1 μM Test Compound (1 μM test compound) | other results
28 | Cc1cc(-c2ccc(Cl)cn2)nc2c(C(=O)NC(C3CC3)C(F)(F)F)cnn12 (stereo not drawn) [III-208] | ** (Gcase activation in the range of 10% up to 20%) | + (less than 30% Gcase activation) | – | – | –
29 | Cc1cc(-c2c(F)cccc2C#N)nc2c(C(=O)N[C@@H](C)C3CC3)cnn12 [III-397] | – | – | ** (Gcase activation in the range of 10% up to 20%) | +++ (Gcase activation greater than 60%) | –
30 | Cc1cc(N2CCN(C(C)C)C2=O)nc2c(C(=O)NC(C3CC3)C(F)(F)F)cnn12 (stereo not drawn) [III-225] | ** (Gcase activation in the range of 10% up to 20%) | +++ (Gcase activation greater than 60%) | – | – | –
